In brackets after ≈: the same amount, converted by molar mass.

One data set relates to enterovirus Cox A16. Kind of data set: microbe, parasite or virus in culture. The format is cell-based. As for the experimental part:
(§1) Anti-picornaviral activity of the compounds of the present invention in in vitro model Test item: activity screening of compounds against enteroviruses EV71 and Cox A16 Test principle: using Vero cells as virus host, the cytopathic effect of Vero cells induced by the inhibition of compounds against enteroviruses EV71 and Cox A16 was measured.
(§2) 1. Virus strains: enteroviruses EV71 (Shenzhen 98) and Cox A16, passaging in the laboratory.
(§3) Test Method: Vero cells were incubated in a 96-well culture plate. After 24 hours, they were infected with EV71 and Cox A16 by adsorption for 2 hours. After discarding the virus solution, maintenance solutions containing different concentrations of samples and positive controls were added, and, at the same time, cell control wells and virus control wells were set. […] The half inhibitory concentrations (IC50) of the samples against EV71 and Cox A16 were respectively calculated according to the Reed-Muench method.

The subject of data set [1] is enterovirus EV71 (Shenzhen 98). Kind of data set: Inhibition of cytopathic effect (CPE) induced by EV71 in Vero cells. The format is cell-based. The settings on record: CPE in Vero cells, Reed-Muench method. Here is the method: as §1, §2, §3
Another data set concerns Vero cells. In words: Toxicity of compounds to the Vero host cells (TC50, TC0). The settings on record: Vero cells. The format is cell-based.

In the case of `CC(C)(C)c1ccc(OCCCCCN2CCN(c3nccs3)CC2)cc1` [Example 6, 2-{4-[5-(4-tert-butylphenoxy)pentyl]piperazin-1-yl}thiazole], the melting point (commonly the temperature of the solid-liquid transition) is 125 to 127 °C. Moreover, in the data set with enterovirus Cox A16 (Enterovirus, CPE in Vero cells, Reed-Muench method, read-out: CoxA16 IC50), the half-maximal inhibitory concentration (IC50) (commonly the concentration at which inhibition is half-maximal) turned out to be 1.57 µg/mL (≈ 4.05 µM). Also, the “CoxA16 SI” value with enterovirus Cox A16 (SI, CoxA16, Vero cells) is 4.0. Also, the 50% inhibitory concentration (IC50) in data set [1] was more than 3.13 µg/mL. In the data set with Vero cells, this molecule yielded a TC0 of 3.13 µg/mL and a TC50 of 6.25 µg/mL (≈ 16.1 µM).
